The values that follow come from paper PMC5945515, “Measuring glucocorticoid receptor expression in vivo with PET” (Oncotarget, 2018).

For orientation: Kd means the free concentration of one partner at which half of the binding sites on the other are occupied at equilibrium, for simple one-to-one binding.

The target of one test is huAR (Homo sapiens, UniProt P10275). Nature of the test: Competition binding assay on cells, human AR. As to the method: The KD for subfamily 3 group C nuclear hormone receptors was determined on cells by displacing ^3H-steroidal agonists for the respective receptor. […].
The cold ligands and ^3H-steroids were co-incubated on cells in PBS at room temperature for one hour. Following incubation, the cells were washed twice with ice cold PBS and the unbound activity was retained for analysis. The cells were lysed with 1 mL of 1 M NaOH and collected. Bound and unbound fractions were counted in a liquid scintillation counter and expressed as a percentage of the total activity added per equal relative number of cells. […]. The specific binding component was plotted against the log of the competing ligand and curve fit using a non-linear regression algorithm with PRISM software.

The next test addresses T1, huER (Homo sapiens, UniProt P03372).
T1 construct: DU145 (GR), LNCaP-AR (AR), MCF7 (PR, ER), GL261 (mouse GR), and 9L (rat GR); endogenous in cells; host or cells: MCF7
T1 sequence (P03372 1-595): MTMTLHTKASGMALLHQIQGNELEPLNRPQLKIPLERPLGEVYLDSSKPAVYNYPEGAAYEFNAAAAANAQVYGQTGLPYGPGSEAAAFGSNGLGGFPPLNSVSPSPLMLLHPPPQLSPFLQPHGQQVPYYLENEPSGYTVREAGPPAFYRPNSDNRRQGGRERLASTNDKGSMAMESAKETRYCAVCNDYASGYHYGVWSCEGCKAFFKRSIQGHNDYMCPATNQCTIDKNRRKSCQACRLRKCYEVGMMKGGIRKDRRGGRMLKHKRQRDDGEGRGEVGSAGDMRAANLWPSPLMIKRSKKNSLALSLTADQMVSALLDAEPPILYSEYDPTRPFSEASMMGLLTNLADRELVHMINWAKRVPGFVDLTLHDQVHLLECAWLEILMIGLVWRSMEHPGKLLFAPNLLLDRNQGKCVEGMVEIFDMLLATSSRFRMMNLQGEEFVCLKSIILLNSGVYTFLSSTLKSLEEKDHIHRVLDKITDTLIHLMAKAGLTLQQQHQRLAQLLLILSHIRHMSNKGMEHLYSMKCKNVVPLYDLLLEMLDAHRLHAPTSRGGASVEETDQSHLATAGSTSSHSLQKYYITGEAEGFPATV
Briefly: Competition binding assay on cells, human ER. The settings on record: MCF7 cells, displacing 3H-estradiol.

A further test has as its target T2, huMR (Homo sapiens, UniProt P08235).
T2 sequence (P08235 1-984): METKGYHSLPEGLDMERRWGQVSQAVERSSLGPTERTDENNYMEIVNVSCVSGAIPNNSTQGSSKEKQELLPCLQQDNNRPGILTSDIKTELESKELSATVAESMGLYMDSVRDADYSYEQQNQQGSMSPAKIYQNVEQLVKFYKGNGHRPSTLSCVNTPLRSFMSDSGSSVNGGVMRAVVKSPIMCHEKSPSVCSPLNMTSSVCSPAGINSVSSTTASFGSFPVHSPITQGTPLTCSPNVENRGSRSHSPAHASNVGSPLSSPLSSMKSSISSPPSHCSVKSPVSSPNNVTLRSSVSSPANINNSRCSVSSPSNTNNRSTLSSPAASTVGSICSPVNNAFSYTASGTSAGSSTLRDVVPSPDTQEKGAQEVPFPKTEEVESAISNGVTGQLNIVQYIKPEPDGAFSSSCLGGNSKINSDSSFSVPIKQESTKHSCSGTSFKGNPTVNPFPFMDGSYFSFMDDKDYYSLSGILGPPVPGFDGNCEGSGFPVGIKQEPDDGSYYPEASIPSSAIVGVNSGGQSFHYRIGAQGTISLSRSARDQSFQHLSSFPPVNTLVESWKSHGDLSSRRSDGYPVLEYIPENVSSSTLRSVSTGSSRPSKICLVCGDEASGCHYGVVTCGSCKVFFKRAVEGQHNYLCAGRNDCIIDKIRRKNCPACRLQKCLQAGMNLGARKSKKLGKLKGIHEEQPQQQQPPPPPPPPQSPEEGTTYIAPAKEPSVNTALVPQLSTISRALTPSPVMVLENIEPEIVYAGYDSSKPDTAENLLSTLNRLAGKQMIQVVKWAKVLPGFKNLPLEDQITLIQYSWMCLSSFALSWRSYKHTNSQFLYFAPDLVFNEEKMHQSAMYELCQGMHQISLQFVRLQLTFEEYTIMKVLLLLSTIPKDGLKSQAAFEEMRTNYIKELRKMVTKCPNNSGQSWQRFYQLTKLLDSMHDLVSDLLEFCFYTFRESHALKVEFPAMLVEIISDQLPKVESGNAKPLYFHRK
Briefly: Competition binding assay on cells, human MR. The settings on record: displacing 3H-aldosterone on cells. The protocol:
The KD for subfamily 3 group C nuclear hormone receptors was determined on cells by displacing ^3H-steroidal agonists for the respective receptor.
The cold ligands and ^3H-steroids were co-incubated on cells in PBS at room temperature for one hour. Following incubation, the cells were washed twice with ice cold PBS and the unbound activity was retained for analysis. The cells were lysed with 1 mL of 1 M NaOH and collected. Bound and unbound fractions were counted in a liquid scintillation counter and expressed as a percentage of the total activity added per equal relative number of cells. […] The specific binding component was plotted against the log of the competing ligand and curve fit using a non-linear regression algorithm with PRISM software.

Sequence of huAR (P10275 whole entry): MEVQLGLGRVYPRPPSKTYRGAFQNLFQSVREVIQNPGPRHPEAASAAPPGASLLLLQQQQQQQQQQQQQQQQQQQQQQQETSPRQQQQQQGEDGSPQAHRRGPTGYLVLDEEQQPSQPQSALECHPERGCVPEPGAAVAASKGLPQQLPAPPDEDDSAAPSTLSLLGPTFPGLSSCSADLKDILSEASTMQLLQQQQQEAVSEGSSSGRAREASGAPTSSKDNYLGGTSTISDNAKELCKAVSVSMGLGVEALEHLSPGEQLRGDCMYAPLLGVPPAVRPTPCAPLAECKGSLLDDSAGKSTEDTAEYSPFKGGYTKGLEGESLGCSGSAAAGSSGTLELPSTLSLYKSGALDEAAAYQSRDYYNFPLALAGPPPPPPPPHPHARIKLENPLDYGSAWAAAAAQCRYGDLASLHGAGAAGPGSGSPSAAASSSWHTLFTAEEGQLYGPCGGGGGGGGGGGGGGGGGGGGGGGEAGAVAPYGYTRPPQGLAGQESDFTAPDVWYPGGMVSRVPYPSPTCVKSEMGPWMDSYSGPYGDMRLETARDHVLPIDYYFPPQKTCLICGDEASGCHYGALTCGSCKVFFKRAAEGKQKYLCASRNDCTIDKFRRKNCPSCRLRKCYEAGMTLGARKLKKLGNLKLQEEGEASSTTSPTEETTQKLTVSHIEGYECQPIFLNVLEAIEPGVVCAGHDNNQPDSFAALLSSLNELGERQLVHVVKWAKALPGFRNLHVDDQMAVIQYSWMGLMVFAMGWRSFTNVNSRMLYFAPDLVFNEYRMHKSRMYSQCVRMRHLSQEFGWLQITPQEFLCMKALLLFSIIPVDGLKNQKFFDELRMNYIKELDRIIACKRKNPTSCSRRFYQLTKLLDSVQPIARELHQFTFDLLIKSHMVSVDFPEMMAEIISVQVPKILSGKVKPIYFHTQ

Regarding `C[C@]12C=CC(=O)C=C1CCC1C2[C@@H](O)C[C@@]2(C)C1CC[C@]2(O)C(=O)COCCCF` (stereo partly drawn) [GR01], the Kd at huAR was 1460 nM; at huER it was 978 nM; at huMR it was 212 nM.

As to `C[C@]12C=CC(=O)C=C1CCC1C2[C@@H](O)C[C@@]2(C)C1CC[C@]2(O)C(=O)CNC(=O)c1ccc(F)cc1` (stereo partly drawn) [GR02], the Kd turned out to be 1260 nM on huAR, 20700 nM on huER and 4030 nM at huMR.
